Results on two substances are retold here after US8748368B2, “Methods for preserving organs and tissues” (DYAX Corp., priority 2002, dated 2014).

Positions of bridges follow the written chain, without caps; N, C: chain ends. No end group written: not given here.

Holding throughout (assay): Affinity (Ki,app) for protease
What all share (format): biochemical

One assay concerns the target T1, human urine kallikrein (Homo sapiens, UniProt P06870).
T1 construct: from tissue; host or cells: urine (from the name only)

For assay [1], the target named is T2, porcine pancreatic kallikrein (Sus scrofa, UniProt P00752).
T2 construct: from tissue; host or cells: pancreas (from the name only)

Another assay deals with T3, human C1r, activated (Homo sapiens, UniProt P00736).
T3 sequence (P00736 18-463 limits assumed): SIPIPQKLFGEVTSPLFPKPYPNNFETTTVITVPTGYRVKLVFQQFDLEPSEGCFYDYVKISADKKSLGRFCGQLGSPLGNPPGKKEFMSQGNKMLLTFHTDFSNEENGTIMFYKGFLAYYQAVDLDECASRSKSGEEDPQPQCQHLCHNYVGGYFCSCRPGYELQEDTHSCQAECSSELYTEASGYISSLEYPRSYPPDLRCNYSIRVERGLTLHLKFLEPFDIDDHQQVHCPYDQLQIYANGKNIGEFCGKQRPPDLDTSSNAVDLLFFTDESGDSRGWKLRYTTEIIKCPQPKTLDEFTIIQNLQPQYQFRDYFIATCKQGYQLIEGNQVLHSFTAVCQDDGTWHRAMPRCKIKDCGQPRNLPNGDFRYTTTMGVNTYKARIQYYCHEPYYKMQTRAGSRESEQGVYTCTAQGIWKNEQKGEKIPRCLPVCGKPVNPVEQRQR
T3 sequence (P00736 464-705 limits assumed): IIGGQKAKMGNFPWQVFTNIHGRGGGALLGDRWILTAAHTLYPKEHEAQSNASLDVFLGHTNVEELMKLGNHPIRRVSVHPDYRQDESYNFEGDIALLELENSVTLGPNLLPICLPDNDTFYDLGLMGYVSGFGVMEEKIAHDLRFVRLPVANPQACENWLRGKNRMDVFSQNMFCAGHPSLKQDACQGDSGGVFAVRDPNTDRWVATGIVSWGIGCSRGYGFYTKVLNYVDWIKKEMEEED

A further assay has as its target T4, human C1s, activated (Homo sapiens, UniProt P09871).
T4 sequence (P09871 16-437 limits assumed): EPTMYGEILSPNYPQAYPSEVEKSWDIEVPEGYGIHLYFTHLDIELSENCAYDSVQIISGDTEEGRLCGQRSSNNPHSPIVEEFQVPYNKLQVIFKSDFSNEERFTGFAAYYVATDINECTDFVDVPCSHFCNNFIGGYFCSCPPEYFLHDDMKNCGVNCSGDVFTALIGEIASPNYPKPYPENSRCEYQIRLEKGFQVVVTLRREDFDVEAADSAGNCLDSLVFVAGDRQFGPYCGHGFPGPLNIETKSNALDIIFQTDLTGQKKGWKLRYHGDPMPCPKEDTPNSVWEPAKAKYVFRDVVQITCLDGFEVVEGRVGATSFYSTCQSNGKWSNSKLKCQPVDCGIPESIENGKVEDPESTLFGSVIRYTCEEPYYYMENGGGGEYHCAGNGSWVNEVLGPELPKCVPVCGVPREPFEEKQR
T4 sequence (P09871 438-688 limits assumed): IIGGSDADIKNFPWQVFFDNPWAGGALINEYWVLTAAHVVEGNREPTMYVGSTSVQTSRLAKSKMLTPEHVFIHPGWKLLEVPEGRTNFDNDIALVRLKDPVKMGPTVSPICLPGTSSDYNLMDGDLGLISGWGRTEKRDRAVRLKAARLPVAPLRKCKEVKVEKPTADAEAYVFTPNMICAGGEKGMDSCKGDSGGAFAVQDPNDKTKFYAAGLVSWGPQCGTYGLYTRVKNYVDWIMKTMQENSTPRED

The next assay addresses T5, human plasma factor XIa (Homo sapiens, UniProt P03951).
T5 construct: human plasma factor XIa; from tissue; host or cells: plasma (from the name only)

The target of the next assay is T6, human plasmin (Homo sapiens, UniProt P00747).
T6 construct: human plasmin

Assay [2] has as its target T7, human neutrophil elastase (Homo sapiens, UniProt P08246).
T7 sequence (P08246 30-267): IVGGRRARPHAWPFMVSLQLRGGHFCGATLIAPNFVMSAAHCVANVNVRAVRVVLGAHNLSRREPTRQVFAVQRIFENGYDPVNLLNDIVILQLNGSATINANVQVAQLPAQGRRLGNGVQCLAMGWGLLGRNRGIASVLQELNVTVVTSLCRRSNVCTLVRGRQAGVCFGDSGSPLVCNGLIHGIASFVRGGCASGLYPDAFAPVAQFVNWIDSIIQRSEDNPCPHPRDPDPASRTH

In the next assay the target is T8, human plasma thrombin (Homo sapiens, UniProt P00734).
T8 construct: human plasma thrombin; from tissue; host or cells: plasma (from the name only)

The target in the next assay is human plasma factor XIIa.
Sequence of human plasma factor XIIa (P00748 373-615 limits assumed): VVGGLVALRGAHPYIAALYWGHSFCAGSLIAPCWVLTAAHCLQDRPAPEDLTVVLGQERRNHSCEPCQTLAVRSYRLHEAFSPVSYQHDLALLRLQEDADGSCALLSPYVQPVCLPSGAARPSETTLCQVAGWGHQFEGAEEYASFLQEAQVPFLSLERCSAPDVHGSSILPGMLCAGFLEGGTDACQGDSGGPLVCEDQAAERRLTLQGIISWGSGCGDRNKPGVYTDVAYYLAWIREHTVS

T5 sequence (P03951 19-387 limits assumed): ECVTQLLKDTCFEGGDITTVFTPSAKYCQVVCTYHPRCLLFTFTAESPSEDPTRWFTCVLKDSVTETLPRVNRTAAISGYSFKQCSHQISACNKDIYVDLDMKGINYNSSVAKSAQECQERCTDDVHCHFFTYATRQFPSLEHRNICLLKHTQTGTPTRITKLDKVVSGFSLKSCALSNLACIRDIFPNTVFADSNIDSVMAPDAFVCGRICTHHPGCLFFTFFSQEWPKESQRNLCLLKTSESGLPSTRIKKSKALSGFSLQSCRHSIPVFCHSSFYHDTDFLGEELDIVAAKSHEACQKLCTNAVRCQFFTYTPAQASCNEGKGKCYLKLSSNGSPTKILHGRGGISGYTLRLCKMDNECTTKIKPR
T5 sequence (P03951 388-625 limits assumed): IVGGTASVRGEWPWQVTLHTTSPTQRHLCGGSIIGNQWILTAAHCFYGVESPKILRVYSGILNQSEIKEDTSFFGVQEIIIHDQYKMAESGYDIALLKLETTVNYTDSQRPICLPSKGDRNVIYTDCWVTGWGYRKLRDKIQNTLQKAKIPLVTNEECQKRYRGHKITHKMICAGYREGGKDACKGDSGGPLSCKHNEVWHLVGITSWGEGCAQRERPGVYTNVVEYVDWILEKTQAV
T2 sequence (P00752 8-246): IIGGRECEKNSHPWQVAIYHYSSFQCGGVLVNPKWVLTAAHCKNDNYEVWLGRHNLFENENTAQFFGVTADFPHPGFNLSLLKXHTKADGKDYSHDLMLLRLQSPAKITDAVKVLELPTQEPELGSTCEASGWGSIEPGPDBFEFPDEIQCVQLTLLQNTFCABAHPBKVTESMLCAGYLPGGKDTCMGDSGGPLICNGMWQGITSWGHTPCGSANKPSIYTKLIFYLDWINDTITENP
T6 sequence (P00747 97-580 limits assumed): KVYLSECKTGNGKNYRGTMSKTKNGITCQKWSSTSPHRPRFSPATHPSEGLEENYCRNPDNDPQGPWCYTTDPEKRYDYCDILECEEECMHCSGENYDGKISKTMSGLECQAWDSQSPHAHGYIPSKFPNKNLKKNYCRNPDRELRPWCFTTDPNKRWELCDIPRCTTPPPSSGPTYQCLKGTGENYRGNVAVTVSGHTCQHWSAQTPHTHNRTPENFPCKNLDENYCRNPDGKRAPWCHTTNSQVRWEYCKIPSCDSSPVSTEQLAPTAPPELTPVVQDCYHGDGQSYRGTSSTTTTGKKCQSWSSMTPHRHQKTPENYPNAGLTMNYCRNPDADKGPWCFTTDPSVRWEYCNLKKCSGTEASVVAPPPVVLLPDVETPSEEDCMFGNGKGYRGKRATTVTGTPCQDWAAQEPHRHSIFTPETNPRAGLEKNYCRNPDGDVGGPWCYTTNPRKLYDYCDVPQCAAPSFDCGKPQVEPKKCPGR
T6 sequence (P00747 581-810 limits assumed): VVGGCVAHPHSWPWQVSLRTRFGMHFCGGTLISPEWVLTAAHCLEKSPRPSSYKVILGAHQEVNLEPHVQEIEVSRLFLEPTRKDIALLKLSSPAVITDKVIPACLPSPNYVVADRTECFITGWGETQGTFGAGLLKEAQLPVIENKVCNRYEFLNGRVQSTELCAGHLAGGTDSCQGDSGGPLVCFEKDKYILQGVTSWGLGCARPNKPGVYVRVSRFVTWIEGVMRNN
T1 sequence (P06870 25-262): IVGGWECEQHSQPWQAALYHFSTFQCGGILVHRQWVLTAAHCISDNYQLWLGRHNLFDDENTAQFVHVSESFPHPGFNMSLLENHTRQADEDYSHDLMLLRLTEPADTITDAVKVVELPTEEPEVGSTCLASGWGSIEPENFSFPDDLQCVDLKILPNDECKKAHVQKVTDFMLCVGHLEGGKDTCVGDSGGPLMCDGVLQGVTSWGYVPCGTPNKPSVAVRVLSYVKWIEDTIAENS

Turning to “EAMHSFCAFKADDGPCRAAHPRWFFNIFTRQCEEFIYGGCEGNQNRFESLEECKKMCTRD (disulfide 7-57, 16-40, 32-53) [PEP-1]”, the Ki at human urine kallikrein was above 100 µM; in assay [1], 27 µM; at human C1r, activated, above 200 µM; at human C1s, activated, above 20 µM; on human plasma factor XIa, 0.01 µM; at human plasmin it was 0.14 µM. Moreover, the Ki (in assay [2]; at human plasma thrombin) was above 20 µM in each case.

Regarding aprotinin [reference compound], the Ki at human C1s, activated is above 100 µM; at human plasma factor XIIa, above 100 µM; at human plasma thrombin, above 100 µM.
